Where two headings read alike, the source gives them in different places.
Legend:
[1] = target: full-length human PRMT1 isoform 1 (GST-tagged) (Homo sapiens, UniProt Q99873); assay: PRMT1 Biochemical Assay (3H-SAM Flashplate, peptide substrate)
Source text: General Materials. S-adenosylmethionine (SAM), S-adenosylhomocysteine (SAH), bicine, Tween20, dimethylsulfoxide (DMSO), bovine skin gelatin (BSG), and Tris(2-carboxyethyl)phosphine hydrochloride solution (TCEP) were purchased from Sigma-Aldrich at the highest level of purity possible. ^3H-SAM was purchase from American Radiolabeled Chemicals with a specific activity of 80 Ci/mmol. 384-well streptavidin Flashplates were purchased from PerkinElmer.
Protein Expression. Recombinant baculovirus were generated according to Bac-to-Bac kit instructions (Life Technologies). […] Infections were carried out at 27° C. for 48 hours, harvested by centrifugation, and stored at −80° C. for purification.
Protein Purification. […] GST-tagged PRMT1 was eluted with 50 mM Tris, 2 mM glutathione, pH 7.8, dialysed in buffer A and concentrated to 1 mg/mL.
General Procedure for PRMT1 Enzyme Assays on Peptide Substrates. The assays were all performed in a buffer consisting of 20 mM Bicine (pH=7.6), 1 mM TCEP, 0.005% BSG, and 0.002% Tween 20, prepared on the day of use. […] DMSO (1 ul) was added to Columns 11, 12, 23, 24, rows A-H for the maximum signal control and 1 ul of SAH, a known product and inhibitor of PRMT1, was added to columns 11, 12, 23, 24, rows I-P for the minimum signal control. A cocktail (40 ul) containing the PRMT1 enzyme was added by Multidrop Combi (Thermo-Fisher). The compounds were allowed to incubate with PRMT1 for 30 min at room temperature, then a cocktail (10 ul) containing SAM and peptide was added to initiate the reaction (final volume=51 ul). […] The assays were stopped by the addition of non-radiolabeled SAM (10 ul) to a final concentration of 300 uM, which dilutes the ^3H-SAM to a level where its incorporation into the peptide substrate is no longer detectable. 50 ul of the reaction in the 384-well polypropylene plate was then transferred to a 384-well Flashplate and the biotinylated peptides were allowed to bind to the streptavidin surface for at least 1 hour before being washed once with 0.1% Tween20 in a Biotek ELx405 plate washer. The plates were then read in a PerkinElmer TopCount plate reader to measure the quantity of ^3H-labeled peptide bound to the Flashplate surface, measured as disintegrations per minute (dpm) or alternatively, referred to as counts per minute (cpm).
Where dpm=disintegrations per minute, cmpd=signal in assay well, and min and max are the respective minimum and maximum signal controls.
Where top and bottom are the normally allowed to float, but may be fixed at 100 or 0 respectively in a 3-parameter fit. The Hill Coefficient normally allowed to float but may also be fixed at 1 in a 3-parameter fit. Y is the % inhibition and X is the compound concentration.

[2] = system: mono-methyl arginine in RKO cells; assay: RKO Methylation Assay, In Cell Western (ICW) for detection of mono-methyl arginine and DNA content; type: cell-based; conditions: Homo sapiens, RKO, 72 h, RKO cells, read-out: In Cell Western EC30
Source text: RKO adherent cells were purchased from ATCC (American Type Culture Collection), Manassas, Va., USA. DMEM/Glutamax medium, penicillin-streptomycin, heat inactivated fetal bovine serum, 0.05% trypsin and D-PBS were purchased from Life Technologies, Grand Island, N.Y., USA. Odyssey blocking buffer, 800 CW goat anti-rabbit IgG (H+L) antibody, and Licor Odyssey infrared scanner were purchased from Licor Biosciences, Lincoln, Nebr., USA. Mono-methyl arginine antibody was purchased from Cell Signaling Technology, Danvers, Mass., USA. Methanol was purchased from VWR, Franklin, Mass., USA. 10% Tween 20 was purchased from KPL, Inc., Gaithersburg, Md., USA. DRAQ5 was purchased from Biostatus Limited, Leicestershire, UK.
RKO adherent cells were maintained in growth medium (DMEM/Glutamax medium supplemented with 10% v/v heat inactivated fetal bovine serum and 100 units/mL penicillin-streptomycin) and cultured at 37° C. under 5% CO2.
Cell treatment, In Cell Western (ICW) for detection of mono-methyl arginine and DNA content. […] Compound (100 nL) from a 96-well source plate was added directly to 384 well cell plate. Plates were incubated at 37° C., 5% CO2 for 72 hours. After three days of incubation, plates were brought to room temperature outside of the incubator for ten minutes and blotted on paper towels to remove cell media. 50 μL of ice cold 100% methanol was added directly to each well and incubated for 30 min at room temperature. After 30 min, plates were transferred to a Biotek EL406 plate washer and washed 2 times with 100 μL per well of wash buffer (1×PBS). Next 60 μL per well of Odyssey blocking buffer (Odyssey Buffer with 0.1% Tween 20 (v/v)) were added to each plate and incubated 1 hour at room temperature. Blocking buffer was removed and 20 μL per well of primary antibody was added (mono-methyl arginine diluted 1:200 in Odyssey buffer with 0.1% Tween 20 (v/v)) and plates were incubated overnight (16 hours) at 4° C. Plates were washed 5 times with 100 μL per well of wash buffer. […] The plates were washed 5 times with 100 μL per well wash buffer then 2 times with 100 μL per well of water. Plates were allowed to dry at room temperature then imaged on the Licor Odyssey machine which measures integrated intensity at 700 nm and 800 nm wavelengths. Both 700 and 800 channels were scanned.
Calculations: First, the ratio for each well was determined by:
Each plate included fourteen control wells of DMSO only treatment (minimum activation) as well as fourteen control wells for maximum activation treated with 20 μM of a reference compound. The average of the ratio values for each control type was calculated and used to determine the percent activation for each test well in the plate. Reference compound was serially diluted three-fold in DMSO for a total of nine test concentrations, beginning at 20 μM. Percent activation was determined and EC30 curves were generated using triplicate wells per concentration of compound.

[3] = single experiment or average of multiple experiments
[4] = 72 hours compound incubation, mono-methyl arginine signal normalised to DNA content (DRAQ5), percent activation vs 20 μM reference compound
[5] = 72 hours incubation, mono-methyl arginine signal normalised to DNA content, single experiment or average of multiple experiments

full-length human PRMT1 isoform 1 (GST-tagged), sequence (Q99873 with tags, fused parts or gaps): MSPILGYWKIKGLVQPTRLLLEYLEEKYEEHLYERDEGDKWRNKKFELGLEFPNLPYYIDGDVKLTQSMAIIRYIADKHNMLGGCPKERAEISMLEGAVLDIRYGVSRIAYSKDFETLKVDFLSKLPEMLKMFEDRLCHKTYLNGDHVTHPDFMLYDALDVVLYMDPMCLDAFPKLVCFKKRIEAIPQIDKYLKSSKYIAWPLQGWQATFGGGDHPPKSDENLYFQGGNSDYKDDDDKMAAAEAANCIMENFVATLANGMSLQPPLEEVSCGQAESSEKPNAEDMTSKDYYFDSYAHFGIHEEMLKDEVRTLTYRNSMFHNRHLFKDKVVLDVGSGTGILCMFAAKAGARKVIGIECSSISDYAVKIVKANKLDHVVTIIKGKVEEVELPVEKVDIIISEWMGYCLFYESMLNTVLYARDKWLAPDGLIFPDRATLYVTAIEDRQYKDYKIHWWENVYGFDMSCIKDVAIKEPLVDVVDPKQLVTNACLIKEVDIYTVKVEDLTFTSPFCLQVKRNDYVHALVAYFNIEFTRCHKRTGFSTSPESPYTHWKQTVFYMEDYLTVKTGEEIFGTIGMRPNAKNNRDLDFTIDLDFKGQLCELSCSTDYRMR

Row | Structure (SMILES) | IC50 [1] [nM] | IC50 [1, 3] [nM] | EC30 [2, 4] [nM] | EC30 [2, 5] [nM]
1 | CNCCN(C)Cc1c[nH]nc1C1CCC2(CC1)CN(C)C(=O)N2C (centres unmarked) [Compound 172] | < 100 | 23 | 3010 to 12000 | 4460
2 | CNCCN(C)Cc1c[nH]nc1[C@H]1CC[C@@H](C(C)C)CC1 [Compound 181] | < 100 | 4.7 | < 3000 | 107
3 | CNCCN(C)Cc1c[nH]nc1[C@H]1CC[C@@]2(CCOC2)CC1 [Compound 141] | < 100 | 10.7 | < 3000 | 132
4 | CNCCN(C)Cc1c[nH]nc1C1CCC2(CC1)NC(=O)NC2=O (centres unmarked) [Compound 175] | < 100 | 13.3 | > 12000 | > 20000
5 | CNCCN(C)Cc1c[nH]nc1C1CC(OCC(C)C)CC(OCC(C)C)C1 (centres unmarked) [Compound 122] | 101 to 1000 | 421 | – | 346
6 | CNCCN(C)Cc1c[nH]nc1[C@H]1CC[C@@H](O)C2(CCCCC2)C1 (single isomer, unassigned) [Compound 183] | < 100 | 13.5 | < 3000 | 319
7 | CNCCN(C)Cc1c[nH]nc1C1CCC(C)CC1 (centres unmarked) [Compound 149] | < 100 | 4.5 | < 3000 | 106
8 | CNCCN(C)Cc1c[nH]nc1[C@H]1CC[C@]2(CCN(Cc3ccc(OCCOC)cc3)C2=O)CC1 [Compound 111] | < 100 | 22.4 | < 3000 | 913
9 | CCN1C(=O)N(C)CC12CCC(c1n[nH]cc1CN(C)CCNC)CC2 (centres unmarked) [Compound 162] | < 100 | 38.9 | 3010 to 12000 | 6680
10 | CNCCN(C)Cc1c[nH]nc1C1CCC2(CC1)C(=O)NC(=O)N2C (centres unmarked) [Compound 161] | < 100 | 25.6 | 3010 to 12000 | 5020
11 | CNCCN(C)Cc1c[nH]nc1C1CCC2(CC1)C(=O)N(C)C(=O)N2C (centres unmarked) [Compound 171] | < 100 | 14.7 | < 3000 | 192
12 | CNCCN(C)Cc1c[nH]nc1C1CCC(CC(C)C)CC1 (centres unmarked) [Compound 169] | < 100 | 6.5 | < 3000 | 16
13 | CNCCN(C)Cc1c[nH]nc1C1CCC2(CCNC2=O)CC1 (centres unmarked) [Compound 176] | < 100 | 10.2 | < 3000 | 2140
14 | CNCCN(C)Cc1c[nH]nc1[C@H]1CC[C@H](OCCOc2ccccc2)CC1 [Compound 187] | 101 to 1000 | 193 | 3010 to 12000 | 3160
15 | CNCCN(C)Cc1c[nH]nc1C1CCC2(CC1)OCCCO2 [Compound 160] | < 100 | 21.8 | < 3000 | 166
16 | CNCCN(C)Cc1c[nH]nc1C1CCC2(CC1)CN(CC(C)C)C(=O)N2C (centres unmarked) [Compound 145] | < 100 | 26.2 | < 3000 | 2300
17 | CN(CCN)Cc1c[nH]nc1CCc1ccccc1 [Compound 9] | < 100 | 10 | 3010 to 12000 | 5610
18 | CCOC1CC(OCC)CC(c2n[nH]cc2CN(C)CCNC)C1 (centres unmarked) [Compound 132] | 101 to 1000 | 626 | – | 3.8
19 | CNCCN(C)Cc1c[nH]nc1[C@H]1CC[C@H](COC)CC1 [Compound 167] | < 100 | 11 | < 3000 | 18
20 | CNCCN(C)Cc1c[nH]nc1C1CCC(C)(C)C(O)C1 (centres unmarked) [Compound 185, 2,2-dimethyl-5-[4-({methyl[2-(methylamino)ethyl]amino}methyl)-1H-pyrazol-3-yl]cyclohexan-1-ol] | < 100 | 14.2 | < 3000 | 453
21 | CC[C@H]1CC[C@H](c2n[nH]cc2CN(C)CCNC)CC1 [Compound 148] | < 100 | 4.8 | < 3000 | 16
22 | CNCCN(C)Cc1c[nH]nc1C1CCC2(CC1)CCN(CC(C)C)C2=O (centres unmarked) [Compound 164] | < 100 | 19.7 | < 3000 | 78
23 | CNCCN(C)Cc1c[nH]nc1C1CCC2(CC1)CC(=O)N(C)C2 (centres unmarked) [Compound 157] | < 100 | 18.5 | < 3000 | 2490
24 | CNCCN(C)Cc1c[nH]nc1[C@H]1CC[C@]2(CCN(CC(C)C)C2=O)CC1 [Compound 124] | < 100 | 6.4 | < 3000 | 21.4
25 | CNCCN(C)Cc1c[nH]nc1C1CCC2(CC1)CN(C)C(=O)N2CC(C)C (centres unmarked) [Compound 151] | < 100 | 36.9 | < 3000 | 705

From patent US11512053B2, “Arginine methyltransferase inhibitors and uses thereof” (priority 2013, dated 2022)
